According to publication PMC7219108, “Pisum sativum Defensin 1 Eradicates Mouse Metastatic Lung Nodules from B16F10 Melanoma Cells” (International Journal of Molecular Sciences, 2020):

Columns and labels:
B16F10 cells [1] = assay: Glucosylceramide depletion study on Psd1 entrance in B16F10 cells; format: cell-based, murine; settings: 20 µM PPMP, 1 h, without Psd1
Procedure: Figure 4 GlcCer reduction inhibits the entrance of FITC-Psd1 into B16F10 cancer cells. B16F10 cells (1.5 × 10^4) were incubated with or without 20 µM PPMP for 1 h followed by treatment with or without 9 µM FITC-Psd1 for 2 h. Fixed cells were stained with Vybrant™ Alexa Fluor™ 594 and DAPI. (a) B16F10 cells without treatments (−PPMP, −Psd1); (b) B16F10 cells treated with Psd1 for 2 h (–PPMP, +Psd1 (2 h)); (c) B16F10 cells treated with PPMP (+PPMP, −Psd1); (d) B16F10 cells treated with PPMP plus Psd1 (+PPMP, +Psd1 (2 h)). Pictures were acquired at 40× magnification. Inset zoom images are at 100× magnification. At least two experiments were performed independently.
B16F10 cells (1.5 × 10^4) in cover glass were previously incubated with 20 µM DL-threo-1-phenyl-2-palmitoylamino-3-morpholino-1-propanol (PPMP, Sigma-Aldrich Brasil, São Paulo, Brazil) inhibitor for 60 min followed by treatment with 9 µM Psd1 for 30 min or 2 h. The cells were fixed on glass slides with 4% paraformaldehyde plus 4% sucrose for 10 min and then stained with a Vybrant Alexa Fluor 594 Lipid Raft Labeling Kit (Thermo Fisher Scientific Inc, Maryland, USA). Briefly, 1.25 µg/mL cholera toxin subunit B (CT-B) and 160× diluted anti-CT-B were incubated with cells for 10 min each at 4 °C. Three PBS wash steps were performed between each stage. […]

B16F10 cells [2] = assay: SYTOXGreen uptake (membrane permeabilization), B16F10 cells; format: cell-based, murine; settings: 0.0001% H2O2, 30 min
Procedure: Figure 2 Psd1 promotes B16F10 live cell membrane permeabilization as monitored by SYTOX Green fluorescence. (A) Psd1 untreated and hydrogen peroxide-treated B16F10 cells. (B) A total of 1.5 × 10^4 B16F10 cells were incubated with 3 or 50 µM Psd1 for 30 min. (C) 1.5 × 10^4 B16F10 cells were incubated with 50 µM Psd1 for 1 h. All experiments were performed at 37 °C. Nucleus staining is shown in green (SYTOXGreen), and mitochondria are shown in red (MitoTracker Red CMXRos). Images are shown at 20× magnification. […] (E) Psd1 induces apoptosis in B16F10 cells. B16F10 cells were treated with 50 µM Psd1 for 24 h and labeled with propidium iodide, and the DNA content was analyzed by flow cytometry for the sub-G0/G1 profile. At least two independent experiments were performed. TEXT PRINTED IN THE PICTURE: (E) Control: Sub-G1: 4.4% | (E) Psd1: Sub-G1: 60.6% (50μM)
Images were obtained in the X, Y, and Z planes of the image, giving the image a 3-dimensional depth (Z-stack) at 100× magnification with a Zeiss Cell Observer Yokogawa Spinning Disk confocal microscope (Cell Observed SD, Carl-Zeiss, Oberkochen, Germany) located in the Microscopia Óptica de Luz Gustavo de Oliveira Castro (Plamol) platform in Universidade Federal do Rio de Janeiro. To measure the mean fluorescence intensity (MFI), Zen Lite Blue (Carl-Zeiss, Oberkochen, Germany) software was used. On average, thirty cells per field were analyzed in fourteen fields by experiments. Then, the region of interest (ROI), specifically the nucleus and mitochondria, was tagged on the cells photographed for fluorescence analysis, which is given by the software from the intensity of the pixels. Subsequently, the statistical test was performed using GraphPad Prism version 7.4, and the values presented are averages with the corresponding standard deviations (SDs).
B16F10 cells were trypsinized and counted, and 1.5 × 10^4 cells/well in DMEM containing 0.1% (w/v) bovine serum albumin BSA were plated in a cell-view glass bottom culture dish with four compartments (Thermo Fisher Scientific Inc, Maryland, USA) and then incubated at 37 °C overnight to adhere. Post-treatment, the cells were treated with 3 or 50 µM Psd1 for 30 or 60 min and maintained at the same temperature. Cells treated with only water or 0.0001% H2O2 for 30 min were used as the negative and positive controls, respectively. Washes with saline were carried out between the additions of each probe followed by incubation at room temperature. The cells were incubated with 1 µL of SG, 1.5 µL of MitoTracker Red CMXRos, and 2 µL of DAPI for 10, 20, and 10 min, respectively. The fluorescent images were acquired by confocal microscopy.

recombinant cyclin F-GST = target: T1, recombinant cyclin F-GST; assay: SPR; Biacore X, CM5 chip, 25 °C; cyclin F-GST immobilised by amine coupling (10 mM sodium acetate pH 4.0); Psd1 10-240 µM injected at 15 µL/min for 4 min in 10 mM HEPES, 150 mM NaCl, pH 7.4; Psd1-GST curves subtracted; global fit, 1:1 Langmuir model; settings: both partners purified
T1 chain: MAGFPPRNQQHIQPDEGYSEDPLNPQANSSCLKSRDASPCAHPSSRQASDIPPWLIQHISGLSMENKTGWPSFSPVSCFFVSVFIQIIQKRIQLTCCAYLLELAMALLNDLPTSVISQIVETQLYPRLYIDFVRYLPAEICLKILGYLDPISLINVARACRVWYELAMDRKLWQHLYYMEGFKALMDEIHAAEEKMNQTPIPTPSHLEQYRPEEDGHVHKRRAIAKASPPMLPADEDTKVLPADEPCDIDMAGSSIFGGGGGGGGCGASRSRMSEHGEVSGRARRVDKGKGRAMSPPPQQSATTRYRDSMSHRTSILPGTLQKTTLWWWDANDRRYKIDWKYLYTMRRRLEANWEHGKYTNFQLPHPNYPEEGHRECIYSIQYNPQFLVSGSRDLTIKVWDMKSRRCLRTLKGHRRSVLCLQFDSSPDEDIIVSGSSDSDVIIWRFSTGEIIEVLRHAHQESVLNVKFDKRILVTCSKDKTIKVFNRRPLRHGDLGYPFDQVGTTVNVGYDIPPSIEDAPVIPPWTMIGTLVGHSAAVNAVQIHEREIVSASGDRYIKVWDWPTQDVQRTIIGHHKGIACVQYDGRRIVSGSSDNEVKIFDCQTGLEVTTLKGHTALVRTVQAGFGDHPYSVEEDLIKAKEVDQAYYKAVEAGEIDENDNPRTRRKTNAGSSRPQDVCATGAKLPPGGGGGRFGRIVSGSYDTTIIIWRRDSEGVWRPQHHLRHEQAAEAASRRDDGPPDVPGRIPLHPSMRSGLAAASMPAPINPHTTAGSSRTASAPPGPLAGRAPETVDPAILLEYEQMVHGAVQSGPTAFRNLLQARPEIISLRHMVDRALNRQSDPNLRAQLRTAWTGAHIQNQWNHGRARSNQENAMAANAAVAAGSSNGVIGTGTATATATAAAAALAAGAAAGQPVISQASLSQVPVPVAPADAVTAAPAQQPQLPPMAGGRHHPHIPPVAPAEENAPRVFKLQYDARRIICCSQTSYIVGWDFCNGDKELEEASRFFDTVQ

## CCCCCCCCCCCCCCCC(=O)N[C@H](CN1CCOCC1)[C@H](O)c1ccccc1 (racemic) [PPMP, DL-threo-1-phenyl-2-palmitoylamino-3-morpholino-1-propanol]
B16F10 cells [1]
  CT-B / Alexa Fluor 594 red signal (lipid raft; GlcCer): significant reduction in the bright red signal

## OO [hydrogen peroxide, reference compound]
B16F10 cells [2]
  SYTOXGreen fluorescence, positive control: green fluorescence signal increased significantly

B1: Pisum sativum defensin 1 (peptide, UniProt P81929 1-46, looked up)
chain: KTCEHLADTYRGVCFTNASCDDHCKNKAHLISGTCHNWKCFCTQNC
notes: Pisum sativum defensin 1 (Psd1), 46-amino acid residue plant defensin from pea seeds; also called Psd1; pea defensin Psd1; source: expressed and purified as previously described [11], first step HiPrep 26/60 Sephacryl S-100 HR; the abstract says Psd1 can be expressed in Pichia pastoris
Recombinant cyclin F-GST
  Kd: 1500 µM
